Results from ChEMBL document CHEMBL1201862, “PubChem BioAssay data set” (2004).
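Values below derive from 48-hour exposures of cells grown in 96-well plates, with endpoints linearly interpolated between the two concentrations bracketing the appropriate inhibition level. Here, GI50 denotes the concentration required for 50% inhibition of growth.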 Active and inactive are the calls of the source. Cut-off read from the data, not from the text of the source: active = GI50 up to about 1.1 µM and inactive = higher.

Experiments:
Test in all cases: inhibition of tumour cell growth, NCI panel, 48 h
PC-3 = tested on: PC-3
MDA-MB-231 = tested on: MDA-MB-231
HOP-62 = tested on: HOP-62
A549 = tested on: A549
SF-268 = tested on: SF-268
A498 = tested on: A498
SF-539 = tested on: SF-539
DU-145 = tested on: DU-145
MDA-MB-435 = tested on: MDA-MB-435
SK-OV-3 = tested on: SK-OV-3
NCI-H460 = tested on: NCI-H460
CCRF-CEM = tested on: CCRF-CEM
SK-MEL-5 = tested on: SK-MEL-5
LOX IMVI = tested on: LOX IMVI
EKVX = tested on: EKVX
SNB-19 = tested on: SNB-19
BT-549 = tested on: BT-549
KM12 = tested on: KM12
ACHN = tested on: ACHN
RPMI-8226 = tested on: RPMI-8226

Measured: GI50

CCOC(=O)c1cnn2c1ncc1c(=O)n(NC(N)=O)ccc12
inactive: PC-3 > 100 µM | MDA-MB-231 > 100 µM | HOP-62 > 100 µM | A549 > 100 µM | SF-268 > 100 µM | A498 > 100 µM | SF-539 > 100 µM | DU-145 > 100 µM | MDA-MB-435 > 100 µM | SK-OV-3 > 100 µM | NCI-H460 > 100 µM | CCRF-CEM > 100 µM | SK-MEL-5 > 100 µM | LOX IMVI > 100 µM | EKVX > 100 µM | SNB-19 > 100 µM | BT-549 94.8 µM | KM12 > 100 µM | ACHN > 100 µM

CCOC(=O)N/N=C/C1=NN(C(=O)OCC)[S+]([O-])C1C (stereo not drawn)
inactive: PC-3 > 100 µM | MDA-MB-231 > 100 µM | HOP-62 > 100 µM | A549 > 100 µM | SF-268 > 100 µM | A498 > 100 µM | SF-539 > 100 µM | DU-145 > 100 µM | MDA-MB-435 > 100 µM | SK-OV-3 > 100 µM | NCI-H460 96.8 µM | CCRF-CEM > 100 µM | SK-MEL-5 > 100 µM | EKVX > 100 µM | SNB-19 > 100 µM | BT-549 > 100 µM | KM12 > 100 µM | ACHN > 100 µM | RPMI-8226 > 100 µM

Cc1ccc(C)n1-n1c(Cc2ccc(Cl)cc2)n[nH]c1=O
inactive: PC-3 39.2 µM | MDA-MB-231 > 100 µM | HOP-62 > 100 µM | A549 69 µM | SF-268 > 100 µM | A498 > 100 µM | DU-145 > 100 µM | MDA-MB-435 > 100 µM | SK-OV-3 > 100 µM | NCI-H460 > 100 µM | CCRF-CEM 36.6 µM | SK-MEL-5 51.8 µM | LOX IMVI 59.4 µM | EKVX 69.5 µM | SNB-19 > 100 µM | BT-549 71.1 µM | KM12 46 µM | ACHN > 100 µM | RPMI-8226 33.3 µM

COc1cc(C(=O)N(C(=O)N2CCCCC2)c2ccccc2)cc(OC)c1OC
inactive: PC-3 > 100 µM | MDA-MB-231 > 100 µM | HOP-62 > 100 µM | A549 > 100 µM | A498 > 100 µM | SF-539 > 100 µM | DU-145 > 100 µM | MDA-MB-435 > 100 µM | SK-OV-3 > 100 µM | NCI-H460 > 100 µM | CCRF-CEM > 100 µM | SK-MEL-5 > 100 µM | LOX IMVI > 100 µM | EKVX > 100 µM | SNB-19 > 100 µM | BT-549 > 100 µM | KM12 > 100 µM | ACHN > 100 µM | RPMI-8226 89.1 µM

Nc1c(Br)cc(-c2nc3ccccc3s2)cc1Br
inactive: PC-3 > 100 µM | MDA-MB-231 > 100 µM | HOP-62 > 100 µM | A549 > 100 µM | SF-268 > 100 µM | A498 > 100 µM | SF-539 > 100 µM | DU-145 > 100 µM | MDA-MB-435 > 100 µM | SK-OV-3 > 100 µM | NCI-H460 > 100 µM | CCRF-CEM > 100 µM | SK-MEL-5 > 100 µM | EKVX > 100 µM | SNB-19 > 100 µM | BT-549 > 100 µM | KM12 75.7 µM | ACHN > 100 µM

COc1ccc(-n2cnc3c(NC(C)(C)C(=O)O)ncnc32)cc1
inactive: PC-3 > 100 µM | MDA-MB-231 > 100 µM | HOP-62 > 100 µM | A549 > 100 µM | SF-268 > 100 µM | A498 > 100 µM | DU-145 > 100 µM | MDA-MB-435 > 100 µM | SK-OV-3 > 100 µM | NCI-H460 > 100 µM | CCRF-CEM > 100 µM | SK-MEL-5 > 100 µM | LOX IMVI > 100 µM | EKVX 84.9 µM | SNB-19 > 100 µM | BT-549 > 100 µM | KM12 > 100 µM | ACHN > 100 µM | RPMI-8226 > 100 µM

CCOC(=O)c1ccc(N(C)Cc2cnc3nc(N)nc(N)c3n2)cc1
inactive: PC-3 5.02 µM | MDA-MB-231 21.7 µM | HOP-62 13 µM | SF-268 9.51 µM | A498 13.1 µM | SF-539 8.13 µM | DU-145 15.8 µM | MDA-MB-435 8.83 µM | SK-OV-3 18.5 µM | NCI-H460 9.79 µM | CCRF-CEM 89.9 µM | SK-MEL-5 6.1 µM | LOX IMVI 5.5 µM | EKVX 24.6 µM | SNB-19 11.6 µM | BT-549 17.3 µM | KM12 15.8 µM | ACHN 5.05 µM | RPMI-8226 74 µM

CC(=O)Nc1cc2nc3n(c2cc1C)CCC3OC(C)=O (stereo not drawn)
inactive: PC-3 > 100 µM | MDA-MB-231 > 100 µM | A549 > 100 µM | SF-268 > 100 µM | A498 > 100 µM | SF-539 > 100 µM | DU-145 > 100 µM | MDA-MB-435 > 100 µM | SK-OV-3 > 100 µM | NCI-H460 > 100 µM | CCRF-CEM > 100 µM | LOX IMVI > 100 µM | EKVX > 100 µM | SNB-19 > 100 µM | BT-549 > 100 µM | KM12 > 100 µM | ACHN > 100 µM | RPMI-8226 > 100 µM

COC(=O)C1=COC2OC3C(C(C)O)C(=O)OC34C=CC1C24 (stereo not drawn)
inactive: PC-3 85.5 µM | MDA-MB-231 > 100 µM | A549 > 100 µM | SF-268 49 µM | A498 98.6 µM | SF-539 30.1 µM | DU-145 57.1 µM | MDA-MB-435 31.6 µM | SK-OV-3 59.7 µM | NCI-H460 49.2 µM | CCRF-CEM 14.9 µM | SK-MEL-5 57 µM | LOX IMVI 47.3 µM | EKVX 81.7 µM | SNB-19 51.5 µM | BT-549 40.4 µM | KM12 37.2 µM | ACHN 44.7 µM | RPMI-8226 29.1 µM

COc1ccc(NC(=O)/C(=N\NC(=O)C[n+]2ccccc2)c2c(O)c3ccc(O)cc3oc2=O)c([N+](=O)[O-])c1
inactive: PC-3 > 100 µM | MDA-MB-231 > 100 µM | A549 > 100 µM | SF-268 > 100 µM | A498 75.7 µM | SF-539 > 100 µM | DU-145 > 100 µM | MDA-MB-435 > 100 µM | SK-OV-3 > 100 µM | NCI-H460 > 100 µM | CCRF-CEM > 100 µM | SK-MEL-5 > 100 µM | LOX IMVI > 100 µM | EKVX > 100 µM | SNB-19 > 100 µM | BT-549 > 100 µM | KM12 40.1 µM | ACHN > 100 µM | RPMI-8226 > 100 µM
